Earlier results as cited in patent US20080195229A1, “Decellularized pericardial tissue” (priority 2007, published 2008).

Assays:
rabbit = conditions: in vivo, iv
3T3 fibroblasts = conditions: in vitro
[1] = test system: Chinese hamster ovary (CHO-K1) cells; conditions: in vitro

| SMILES | LD50 (rabbit) [mg/kg] | solubility in alcohol (alcohol) | solubility in water (water) | cytotoxicity compared with glutaraldehyde (3T3 fibroblasts) | clastogenic response (genotoxicity) [1] |
| --- | --- | --- | --- | --- | --- |
| C[C@H](CCC(=O)O)[C@H]1CC[C@H]2[C@@H]3CC[C@@H]4C[C@H](O)CC[C@]4(C)[C@H]3C[C@H](O)[C@]12C [Deoxycholic acid] | 15 | soluble | sparingly soluble |  |  |
| COC(=O)C1=CO[C@@H](O)[C@@H]2C(CO)=CC[C@H]12 [genipin] |  |  |  | substantially less cytotoxic than glutaraldehyde | does not cause clastogenic response |
